Measurements: PubChem BioAssay AID248 (DTP/NCI, 2004)
Several values for one entry are separate records, joined by “and”; a condition that tells them apart may be missing. Equal values may be shown once. Inconclusive results and toxic doses are left out.

Tested on: L1210 leukemia ip in BDF1 mice, survival T/C
Assay: NCI In Vivo Anticancer Drug Screen. Data for tumor model L1210 Leukemia (intraperitoneal) in B6D2F1 (BDF1) mice
Conditions: endpoint: mean survival time, higher = longer survival
In short: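 Mice bearing the transplanted tumor received compound or vehicle. Survival of the treated group was divided by that of the vehicle-treated control group to give the ratio.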

[1] = dose: 50.0 mg/kg/injection, schedule: Q01DX001 (ip), vehicle: carboxymethylcellulose (CMC)
[2] = dose: 100.0 mg/kg/injection, schedule: Q01DX009 (ip), vehicle: Klucel (hydroxypropylcellulose) (HPC)
[3] = dose: 100.0 mg/kg/injection, schedule: Q04DX003 (ip), vehicle: Klucel (hydroxypropylcellulose) (HPC)
[4] = dose: 200.0 mg/kg/injection, schedule: Q01DX009 (ip), vehicle: Klucel (hydroxypropylcellulose) (HPC)
[5] = dose: 200.0 mg/kg/injection, schedule: Q04DX003 (ip), vehicle: Klucel (hydroxypropylcellulose) (HPC)
[6] = dose: 400.0 mg/kg/injection, schedule: Q04DX003 (ip), vehicle: Klucel (hydroxypropylcellulose) (HPC)
[7] = dose: 400.0 mg/kg/injection, schedule: Q01DX009 (ip), vehicle: Klucel (hydroxypropylcellulose) (HPC)
[8] = dose: 100.0 mg/kg/injection, schedule: Q01DX001 (ip), vehicle: carboxymethylcellulose (CMC)
[9] = dose: 200.0 mg/kg/injection, schedule: Q01DX001 (ip), vehicle: carboxymethylcellulose (CMC)

NC1(C(=O)O)CCCc2ccc(N(CCCl)CCCl)cc21 (stereo not drawn)
T/C (dose: 0.45 mg/kg/injection, schedule: Q01DX009 (ip), vehicle: carboxymethylcellulose (CMC)): 101 % of control
T/C (dose: 0.95 mg/kg/injection, schedule: Q01DX009 (ip), vehicle: carboxymethylcellulose (CMC)): 124 % of control
T/C (dose: 1.8 mg/kg/injection, schedule: Q01DX009 (ip), vehicle: carboxymethylcellulose (CMC)): 119 % of control
T/C (dose: 6.0 mg/kg/injection, schedule: Q01DX001 (ip), vehicle: carboxymethylcellulose (CMC)): 121 % of control
T/C (dose: 8.3 mg/kg/injection, schedule: Q01DX009 (ip), vehicle: carboxymethylcellulose (CMC)): 152 % of control
T/C (dose: 10.8 mg/kg/injection, schedule: Q01DX009 (ip), vehicle: carboxymethylcellulose (CMC)): 168 % of control
T/C (dose: 11.0 mg/kg/injection, schedule: Q01DX001 (ip), vehicle: carboxymethylcellulose (CMC)): 114 % of control and 124 % of control
T/C (dose: 12.5 mg/kg/injection, schedule: Q01DX009 (ip), vehicle: carboxymethylcellulose (CMC)): 163 % of control and 165 % of control
T/C (dose: 16.0 mg/kg/injection, schedule: Q01DX001 (ip), vehicle: carboxymethylcellulose (CMC)): 112 % of control
T/C (dose: 18.0 mg/kg/injection, schedule: Q01DX009 (ip), vehicle: carboxymethylcellulose (CMC)): 161 % of control
T/C (dose: 48.0 mg/kg/injection, schedule: Q01DX001 (ip), vehicle: carboxymethylcellulose (CMC)): 114 % of control
T/C [1]: 123 % of control

CCCCCCCC(O)CCC (stereo not drawn)
T/C [2]: 94 % of control
T/C [3]: 100 % of control
T/C [4]: 104 % of control
T/C [5]: 97 % of control
T/C [6]: 92 % of control

CC(=O)Oc1ccc(CC(C(=O)O)c2ccccc2)cc1 (stereo not drawn)
T/C (dose: 100.0 mg/kg/injection, schedule: Q01DX001 (ip), vehicle: saline): 107 % of control
T/C [2]: 91 % of control
T/C [3]: 100 % of control
T/C (dose: 200.0 mg/kg/injection, schedule: Q01DX001 (ip), vehicle: saline): 101 % of control
T/C [4]: 109 % of control
T/C [5]: 96 % of control
T/C (dose: 400.0 mg/kg/injection, schedule: Q01DX001 (ip), vehicle: saline): 113 % of control
T/C [7]: 95 % of control
T/C [6]: 96 % of control

COc1ccc(OC)c2c(=O)cc[nH]c12
T/C [8]: 103 % of control
T/C [9]: 94 % of control

CN(CCC#N)c1ccc(-c2cc(C(=O)O)c3cc4ccccc4cc3n2)cc1
T/C (dose: 200.0 mg/kg/injection, schedule: Q04DX002 (ip), vehicle: Klucel (hydroxypropylcellulose) (HPC)): 110 % of control
T/C (dose: 400.0 mg/kg/injection, schedule: Q04DX002 (ip), vehicle: Klucel (hydroxypropylcellulose) (HPC)): 95 % of control

CN(C)C(=O)Oc1c(Cl)cccc1Cl
T/C [2]: 92 % of control
T/C [3]: 97 % of control
T/C [4]: 97 % of control
T/C [5]: 96 % of control
T/C [6]: 89 % of control

CC(=O)Nc1ccc(NC(=O)Nc2cccc(C(C)=O)c2)cc1
T/C [2]: 90 % of control
T/C [4]: 101 % of control
T/C [7]: 101 % of control

O=C1CCC=C(c2cccc([N+](=O)[O-])c2)O1
T/C [3]: 100 % of control
T/C [5]: 94 % of control
T/C [6]: 94 % of control

Cc1ccc(NC(=O)NCCCl)cc1
T/C [1]: 97 % of control
T/C [8]: 97 % of control
T/C [9]: 113 % of control
T/C (dose: 400.0 mg/kg/injection, schedule: Q01DX001 (ip), vehicle: carboxymethylcellulose (CMC)): 100 % of control

COc1cc(/C=N/N(c2ccccc2)C2CCS(=O)(=O)C2)ccc1O (stereo not drawn)
T/C (dose: 100.0 mg/kg/injection, schedule: Q04DX002 (ip), vehicle: saline): 93 % of control
T/C (dose: 200.0 mg/kg/injection, schedule: Q04DX002 (ip), vehicle: saline): 101 % of control
T/C (dose: 400.0 mg/kg/injection, schedule: Q04DX002 (ip), vehicle: saline): 93 % of control
